Reference: patent publication US20230085307A1, “PYRIDAZINONE COMPOUND AND HERBICIDE” (NISSAN CHEMICAL CORPORATION, priority 2019, published 2023)

Experiments:
[1] = test system: late watergrass; experiment: Test Example 2: herbicidal activity, application during weed generation under submerged conditions (Table 17, symbol A); type: in vivo, late watergrass (Echinochloa oryzicola); settings: AAH 320 g/ha; application during weed generation, submerged conditions
Summary of the method: (§1)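 Alluvial soil in Wagner pots was flooded to 4 cm depth and sown with the three weeds together; pots were kept in a greenhouse at 25° C. to 30° C. At the one to two leaf stage, an emulsion formulation diluted in water to a set rate went onto the water surface; scored three weeks later.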

[2] = test system: Japanese bulrush; experiment: Test Example 2: herbicidal activity, application during weed generation under submerged conditions (Table 17, symbol B); type: in vivo, Japanese bulrush (Schoenoplectus juncoides); settings: AAH 320 g/ha; application during weed generation, submerged conditions
Summary of the method: as §1

[3] = test system: oval-leafed pondweed; experiment: Test Example 2: herbicidal activity, application during weed generation under submerged conditions (Table 17, symbol C); type: in vivo, oval-leafed pondweed (Monochoria vaginalis); settings: AAH 320 g/ha; application during weed generation, submerged conditions
Summary of the method: as §1

[4] = test system: southern crabgrass; experiment: Test Example 4: herbicidal effect by soil treatment (Table 19, symbol F); type: in vivo, southern crabgrass (Digitaria ciliaris); settings: for herbicidal effect rating, F: southern crabgrass: 320 g/ha; for F: southern crabgrass, herbicidal effect rating: AAH 320 g/ha
Summary of the method: (§2)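 Soil-surface application: an emulsion agent diluted with water to the predetermined dose is sprayed uniformly over seeds lying under roughly 1.5 cm of sterilized diluvial soil. Boxes stay in a greenhouse at 25° C. to 30° C. Three weeks later, each species is graded on previously defined criteria.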

[5] = test system: green foxtail; experiment: Test Example 4: herbicidal effect by soil treatment (Table 19, symbol G); type: in vivo, green foxtail (Setaria viridis); settings: for herbicidal effect rating, G: green foxtail: 320 g/ha; for G: green foxtail, herbicidal effect rating: AAH 320 g/ha
Summary of the method: as §2

[6] = test system: barnyard grass; experiment: Test Example 4: herbicidal effect by soil treatment (Table 19, symbol H); type: in vivo, barnyard grass (Echinochloa crus-galli); settings: for herbicidal effect rating, H: barnyard grass: 320 g/ha; for H: barnyard grass, herbicidal effect rating: AAH 320 g/ha
Summary of the method: as §2

[7] = test system: wild oat; experiment: Test Example 4: herbicidal effect by soil treatment (Table 19, symbol I); type: in vivo, wild oat (Avena fatua); settings: for herbicidal effect rating, I: wild oat: 320 g/ha; for I: wild oat, herbicidal effect rating: AAH 320 g/ha
Summary of the method: as §2

[8] = test system: blackgrass; experiment: Test Example 4: herbicidal effect by soil treatment (Table 19, symbol J); type: in vivo, blackgrass (Alopecurus myosuroides); settings: for herbicidal effect rating, J: blackgrass: 320 g/ha; for J: blackgrass, herbicidal effect rating: AAH 320 g/ha
Summary of the method: as §2

[9] = test system: velvetleaf; experiment: Test Example 4: herbicidal effect by soil treatment (Table 19, symbol M); type: in vivo, velvetleaf (Abutilon theophrasti); settings: for herbicidal effect rating, M: velvetleaf: 320 g/ha; for M: velvetleaf, herbicidal effect rating: AAH 320 g/ha
Summary of the method: as §2

[10] = test system: redroot pigweed; experiment: Test Example 4: herbicidal effect by soil treatment (Table 19, symbol N); type: in vivo, redroot pigweed (Amaranthus retroflexus); settings: for herbicidal effect rating, N: redroot pigweed: 320 g/ha; for N: redroot pigweed, herbicidal effect rating: AAH 320 g/ha
Summary of the method: as §2

[11] = test system: persian speedwell; experiment: Test Example 4: herbicidal effect by soil treatment (Table 19, symbol R); type: in vivo, Persian speedwell (Veronica persica); settings: for herbicidal effect rating, R: persian speedwell: 320 g/ha; for R: persian speedwell, herbicidal effect rating: AAH 320 g/ha
Summary of the method: as §2

[12] = test system: barnyard grass; experiment: Test Example 5: herbicidal effect by foliage application, plastic box (Table 20, symbol H); type: in vivo, barnyard grass (Echinochloa crus-galli); settings: foliage application, 320 g/ha; for effect on barnyard grass (H): 3 weeks after application
Summary of the method: (§3)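 Sow seeds spot-wise in sterilized diluvial soil; cover with ~1.5 cm soil. Grow 14 days in greenhouse, 25° C. to 30° C. Spray foliage with emulsion diluted to predetermined amount. Rate effect after 3 weeks.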

[13] = test system: windgrass; experiment: Test Example 5: herbicidal effect by foliage application, plastic box (Table 20, symbol L); type: in vivo, windgrass (Apera spica-venti); settings: foliage application, 320 g/ha; for effect on windgrass (L): 3 weeks after application
Summary of the method: as §3

[14] = test system: redroot pigweed; experiment: Test Example 5: herbicidal effect by foliage application, plastic box (Table 20, symbol N); type: in vivo, redroot pigweed (Amaranthus retroflexus); settings: foliage application, 320 g/ha, evaluated three weeks after application
Summary of the method: as §3

[15] = test system: chickweed; experiment: Test Example 5: herbicidal effect by foliage application, plastic box (Table 20, symbol P); type: in vivo, common chickweed (Stellaria media); settings: foliage application, 320 g/ha, evaluated three weeks after application
Summary of the method: as §3

[16] = test system: false cleavers; experiment: Test Example 5: herbicidal effect by foliage application, plastic box (Table 20, symbol Q); type: in vivo, false cleavers (Galium spurium); settings: foliage application, 320 g/ha; for effect on false cleavers (Q): 3 weeks after application
Summary of the method: as §3

[17] = test system: persian speedwell; experiment: Test Example 5: herbicidal effect by foliage application, plastic box (Table 20, symbol R); type: in vivo, Persian speedwell (Veronica persica); settings: foliage application, 320 g/ha; for effect on persian speedwell (R): 3 weeks after application
Summary of the method: as §3

[18] = evaluated three weeks after application

SMILES | herbicidal effect rating, A: late watergrass [1] | herbicidal effect rating, B: Japanese bulrush [2] | herbicidal effect rating, C: oval-leafed pondweed [3] | herbicidal effect rating, F: southern crabgrass [4] | herbicidal effect rating, G: green foxtail [5] | herbicidal effect rating, H: barnyard grass [6] | herbicidal effect rating, I: wild oat [7] | herbicidal effect rating, J: blackgrass [8] | herbicidal effect rating, M: velvetleaf [9] | herbicidal effect rating, N: redroot pigweed [10] | herbicidal effect rating, R: persian speedwell [11] | F: southern crabgrass, herbicidal effect rating [4] | G: green foxtail, herbicidal effect rating [5] | H: barnyard grass, herbicidal effect rating [6] | I: wild oat, herbicidal effect rating [7] | J: blackgrass, herbicidal effect rating [8] | effect on barnyard grass (H) [12] | effect on windgrass (L) [13] | effect on false cleavers (Q) [16] | effect on persian speedwell (R) [17] | further results
CCCC(=O)Oc1c(C)nn(C)c(=O)c1-c1c(-c2ccc3c(c2)OCO3)sc2ccc(F)cc12 [2-091] | 0 (Herbicidal rate of 5% or less (almost no effect)) | 3 (Herbicidal rate of 40% or more and less than 70%) | 4 (Herbicidal rate of 70% or more and less than 90%) | 2 (Herbicidal rate of 20% or more and less than 40%) | 3 (Herbicidal rate of 40% or more and less than 70%) | 2 (Herbicidal rate of 20% or more and less than 40%) | 0 (Herbicidal rate of 5% or less (almost no effect)) | 0 (Herbicidal rate of 5% or less (almost no effect)) | 5 (Herbicidal rate of 90% or more (almost completely withered)) | 5 (Herbicidal rate of 90% or more (almost completely withered)) | 4 (Herbicidal rate of 70% or more and less than 90%) |  |  |  |  |  |  |  |  |  | herbicidal effect on H: barnyard grass [12, 18]: 3 (Herbicidal rate of 40% or more and less than 70%); herbicidal effect on L: windgrass [13, 18]: 0 (Herbicidal rate of 5% or less (almost no effect)); herbicidal effect on N: redroot pigweed [14]: 3 (Herbicidal rate of 40% or more and less than 70%); herbicidal effect on P: chickweed [15]: 5 (Herbicidal rate of 90% or more (almost completely withered)); herbicidal effect on Q: false cleavers [16, 18]: 4 (Herbicidal rate of 70% or more and less than 90%); herbicidal effect on R: persian speedwell [17, 18]: 5 (Herbicidal rate of 90% or more (almost completely withered))
Cc1nn(C)c(=O)c(-c2c(-c3ccc(OCC(F)F)cc3)sc3ccccc23)c1O [1-203] | 4 (Herbicidal rate of 70% or more and less than 90%) | 3 (Herbicidal rate of 40% or more and less than 70%) | 4 (Herbicidal rate of 70% or more and less than 90%) |  |  |  |  |  |  |  |  | 4 (Herbicidal rate of 70% or more and less than 90%) | 5 (Herbicidal rate of 90% or more (almost completely withered)) | 5 (Herbicidal rate of 90% or more (almost completely withered)) | 1 (Herbicidal rate of 5% or more and less than 20%) | 3 (Herbicidal rate of 40% or more and less than 70%) | 5 (Herbicidal rate of 90% or more (almost completely withered)) | 4 (Herbicidal rate of 70% or more and less than 90%) | 5 (Herbicidal rate of 90% or more (almost completely withered)) | 5 (Herbicidal rate of 90% or more (almost completely withered)) | M: velvetleaf, herbicidal effect rating [9]: 5 (Herbicidal rate of 90% or more (almost completely withered)); N: redroot pigweed, herbicidal effect rating [10]: 5 (Herbicidal rate of 90% or more (almost completely withered)); R: persian speedwell, herbicidal effect rating [11]: 5 (Herbicidal rate of 90% or more (almost completely withered))
CCCOc1ccc(-c2sc3ccc(F)cc3c2-c2c(OC(=O)CCC)c(C)nn(C)c2=O)cc1 [2-033] | 1 (Herbicidal rate of 5% or more and less than 20%) | 4 (Herbicidal rate of 70% or more and less than 90%) | 4 (Herbicidal rate of 70% or more and less than 90%) | 0 (Herbicidal rate of 5% or less (almost no effect)) | 0 (Herbicidal rate of 5% or less (almost no effect)) | 0 (Herbicidal rate of 5% or less (almost no effect)) | 0 (Herbicidal rate of 5% or less (almost no effect)) | 0 (Herbicidal rate of 5% or less (almost no effect)) | 3 (Herbicidal rate of 40% or more and less than 70%) | 5 (Herbicidal rate of 90% or more (almost completely withered)) | 4 (Herbicidal rate of 70% or more and less than 90%) |  |  |  |  |  | 5 (Herbicidal rate of 90% or more (almost completely withered)) | 0 (Herbicidal rate of 5% or less (almost no effect)) | 5 (Herbicidal rate of 90% or more (almost completely withered)) | 5 (Herbicidal rate of 90% or more (almost completely withered)) | 
Cc1nn(C)c(=O)c(-c2c(-c3ccc(F)cc3)sc3ccc(F)cc23)c1O [2-001] | 1 (Herbicidal rate of 5% or more and less than 20%) | 2 (Herbicidal rate of 20% or more and less than 40%) | 3 (Herbicidal rate of 40% or more and less than 70%) |  |  |  |  |  |  |  |  | 5 (Herbicidal rate of 90% or more (almost completely withered)) | 4 (Herbicidal rate of 70% or more and less than 90%) | 3 (Herbicidal rate of 40% or more and less than 70%) | 3 (Herbicidal rate of 40% or more and less than 70%) | 2 (Herbicidal rate of 20% or more and less than 40%) | 5 (Herbicidal rate of 90% or more (almost completely withered)) | 4 (Herbicidal rate of 70% or more and less than 90%) | 5 (Herbicidal rate of 90% or more (almost completely withered)) | 5 (Herbicidal rate of 90% or more (almost completely withered)) | M: velvetleaf, herbicidal effect rating [9]: 5 (Herbicidal rate of 90% or more (almost completely withered)); N: redroot pigweed, herbicidal effect rating [10]: 5 (Herbicidal rate of 90% or more (almost completely withered)); R: persian speedwell, herbicidal effect rating [11]: 5 (Herbicidal rate of 90% or more (almost completely withered))
